{
  "source": "patent US20110190365A1",
  "about": "“Insecticidal 4-phenyl-1H-pyrazoles” (Bayer Crop Science AG, priority 2008, published 2011)",
  "key": {"[1]": {"test": "log P by HPLC on a reversed-phase column (C18), EEC Directive 79/831 Annex V.A8", "format": "physicochemical", "protocol": "The stated log P values were determined in accordance with EEC Directive 79/831 Annex V.A8 by HPLC (High Performance Liquid Chromatography) using a reversed-phase column (C18)."}, "[2]": {"test_system": "larvae of the mustard beetle (Phaedon cochleariae)", "test": "Phaedon cochleariae test (PHAECO spray treatment)", "format": "in vivo", "details": "application rate 500 g/ha, Chinese cabbage leaf discs sprayed, after 7 days", "protocol": "Phaedon cochleariae Test (PHAECO Spray Treatment)\n(§1) Solvent: 78.0 parts by weight of acetone • • 1.5 parts by weight of dimethylformamide Emulsifier: 0.5 part by weight of alkylaryl polyglycol ether\n(§2) To produce a suitable preparation of active compound, 1 part by weight of active compound is mixed with the stated amounts of solvent and emulsifier, and the concentrate is diluted with emulsifier-containing water to the desired concentration.\nDiscs of Chinese cabbage (Brassica pekinensis) are sprayed with an active compound preparation of the desired concentration and, after drying, populated with larvae of the mustard beetle (Phaedon cochleariae).\nAfter 7 days, the effect in % is determined. 100% means that all beetle larvae have been killed; 0% means that none of the beetle larvae have been killed."}, "[3]": {"test_system": "green peach aphid (Myzus persicae)", "test": "Myzus persicae test (MYZUPE spray treatment)", "format": "in vivo", "details": "application rate 500 g/ha, Chinese cabbage leaf discs sprayed, after 6 days", "protocol": "Myzus persicae Test (MYZUPE Spray Treatment)\nas §1, §2\nDiscs of Chinese cabbage (Brassica pekinensis) infected by all stages of the green peach aphid (Myzus persicae) are sprayed with an active compound preparation of the desired concentration.\nAfter 6 days, the effect in % is determined. 100% means that all of the aphids have been killed; 0% means that none of the aphids have been killed."}, "[4]": {"test_system": "stage 3 Spodoptera litura larvae", "test": "Spodoptera litura larvae test", "format": "in vivo", "details": "active compound concentration 500 ppm, sweet potato leaf dip, after 7 days, mean of two dishes", "protocol": "Spodoptera litura Larvae Test\n(§3) Solvent: 3 parts by weight of dimethylformamide Emulsifier: 1 part by weight of polyoxyethylene alkylphenyl ether\nTo prepare a suitable active compound, 1 part by weight of active compound is mixed with the stated amount of solvent comprising the stated amount of emulsifier, and the mixture is diluted with water to the specified concentration.\nSweet potato leaves are dipped into the sample solution diluted with water to the specified concentration and the leaves treated in this manner are, after the solution adhering to the leaves has dried in air, transferred into a laboratory dish which has a diameter of 9 cm and in which there are 10 stage 3 Spodoptera litura larvae. The dish is then placed in a temperature-controlled room at 25° C., sweet potato leaves are then added to the dish on day two and day four and the number of dead insects is determined after 7 days and used to calculate the insecticidal ratio.\nThe results are the means of two laboratory dishes per group in this test."}, "[5]": {"test_system": "stage 2 Aulacophora femoralis larvae", "test": "Aulacophora femoralis test (spray test)", "format": "in vivo", "details": "active compound concentration 500 ppm, cucumber leaf dip, after 7 days", "protocol": "Aulacophora femoralis Test (Spray Test)\nas §3\nTo prepare a suitable active compound formulation, 1 part by weight of the active compound is mixed with the stated amount of solvent comprising the stated amount of emulsifier, and the mixture is diluted with water to a specified concentration.\nCucumber leaves are dipped into a dilute aqueous solution of an active compound at the specified concentration prepared in the same manner as in the test described above, air-dried and transferred into a plastic dish with sterilized black soil. 5 stage 2 Aulacophora femoralis larvae are transferred into this dish. The dish is then placed into a temperature-controlled room at 25° C. After 7 days, the number of dead larvae is counted to calculate the mortality."}, "[6]": {"test_system": "caterpillars of the armyworm (Spodoptera frugiperda)", "test": "Spodoptera frugiperda test (SPODFR spray treatment)", "format": "in vivo", "details": "application rate 500 g/ha, maize leaf discs sprayed, after 7 days", "protocol": "Spodoptera frugiperda Test (SPODFR Spray Treatment)\nas §1, §2\nDiscs of maize leaves (Zea mays) are sprayed with an active compound preparation of the desired concentration and, after drying, populated with caterpillars of the armyworm (Spodoptera frugiperda).\nAfter 7 days, the effect in % is determined 100% means that all caterpillars have been killed; 0% means that none of the caterpillars have been killed."}, "[7]": {"details": "HPLC, reversed-phase C18, mobile phase with formic acid"}},
  "note": "Read-outs that look alike come from different tables or passages of the source.",
  "data": [
    {"compound": "N#Cc1cc(-n2nc(C(F)(F)F)c(-c3cc(Cl)cc(Cl)c3)c2N)ccc1-n1cnc(S)n1", "note": "[I-A-Q1-089]", "values": [
      {"measurement": "log P (HCOOH)", "setting": "[1]; [7]", "result": "I-A-Q1-089: log P (HCOOH): 3.53"},
      {"measurement": "effect in % (beetle larvae killed)", "setting": "[2]", "result": 83, "unit": "%"},
      {"measurement": "effect in % (aphids killed)", "setting": "[3]", "result": 90, "unit": "%"}
    ]},
    {"compound": "CCOC(=O)c1ccc(-n2cc(-c3cc(Cl)cc(Cl)c3)c(C(F)(F)F)n2)cc1C(F)(F)F", "note": "[I-A-Q4-001, Ethyl 4-[4-(3,5-dichlorophenyl)-3-trifluoromethylpyrazol-1-yl]-2-trifluoromethylbenzoate]", "values": [
      {"measurement": "kill of the insect larvae", "setting": "[4]", "result": 80, "unit": "%"}
    ]},
    {"compound": "CC(NC(=O)c1ccc(-n2cc(-c3cc(Cl)cc(Cl)c3)c(C(F)(F)F)n2)cc1C(F)(F)F)C(F)(F)F", "note": "(centres unmarked) [I-A-Q2-005]", "values": [
      {"measurement": "kill of the insect larvae", "setting": "[4]", "result": 100, "unit": "%"},
      {"measurement": "kill of the insects", "setting": "[5]", "result": 100, "unit": "%"}
    ]},
    {"compound": "O=C(NCc1ccccn1)c1ccc(-n2cc(-c3cc(Cl)cc(Cl)c3)c(C(F)(F)F)n2)cc1[N+](=O)[O-]", "note": "[I-A-Q2-003]", "values": [
      {"measurement": "kill of the insect larvae", "setting": "[4]", "result": 100, "unit": "%"}
    ]},
    {"compound": "CC(NC(=O)c1ccc(-n2cc(-c3cc(Cl)cc(Cl)c3)cn2)cc1C(F)(F)F)C(F)(F)F", "note": "(centres unmarked) [I-A-Q2-006]", "values": [
      {"measurement": "kill of the insect larvae", "setting": "[4]", "result": 100, "unit": "%"}
    ]},
    {"compound": "O=C(NCc1ccccn1)c1ccc(-n2cc(-c3cc(Cl)cc(Cl)c3)c(C(F)(F)F)n2)cc1C(F)(F)F", "note": "[I-A-Q2-001]", "values": [
      {"measurement": "log P (pH 2)", "setting": "[1]; pH 2", "result": "I-A-Q2-001: log P (pH 2): 4.02"},
      {"measurement": "log P (pH 7.5)", "setting": "[1]; pH 7.5", "result": "log P (pH 7.5): 4.74"},
      {"measurement": "kill of the insect larvae", "setting": "[4]", "result": 100, "unit": "%"}
    ]},
    {"compound": "N#Cc1cc(-n2nc(C(F)(F)F)c(-c3cc(Cl)cc(Cl)c3)c2N)ccc1-n1cnc(Cl)n1", "note": "[I-A-Q1-091]", "values": [
      {"measurement": "log P (HCOOH)", "setting": "[1]; [7]", "result": "I-A-Q1-091: log P (HCOOH): 4.17"},
      {"measurement": "effect in % (caterpillars killed)", "setting": "[6]", "result": 100, "unit": "%"},
      {"measurement": "effect in % (beetle larvae killed)", "setting": "[2]", "result": 100, "unit": "%"}
    ]},
    {"compound": "CSc1cc(-n2nc(C(F)(F)F)c(-c3cc(Cl)cc(Cl)c3)c2N)ccc1C(=O)NCc1ccccn1", "note": "[I-A-Q2-409]", "values": [
      {"measurement": "log P (HCOOH)", "setting": "[1]; HCOOH", "result": "I-A-Q2-409: log P (HCOOH): 3.38"},
      {"measurement": "effect in % (caterpillars killed)", "setting": "[6]", "result": 83, "unit": "%"}
    ]},
    {"compound": "O=[N+]([O-])c1ccc(-n2cc(-c3cc(Cl)cc(Cl)c3)c(C(F)(F)F)n2)cc1C(F)(F)F", "note": "[I-A-Q4-006]", "values": [
      {"measurement": "kill of the insect larvae", "setting": "[4]", "result": 80, "unit": "%"}
    ]},
    {"compound": "Nc1c(-c2cc(Cl)cc(Cl)c2)c(C(F)(F)F)nn1-c1ncc(C(=O)NCc2ccccn2)c(C(F)(F)F)n1", "note": "[I-A-Q2-020, N-(Pyridin-2-ylmethyl)-2-[5-amino-4-(3,5-dichlorophenyl)-3-trifluoromethylpyrazol-1-yl]-4-trifluoromethylpyrimidine-5-carboxamide]", "values": [
      {"measurement": "chromatographic logP", "setting": "[1]; HPLC, reversed-phase C18, mobile phase with formic acid, read-out: log P (HCOOH)", "result": 3.54},
      {"measurement": "pest or weed control at 500 g/ha", "setting": "[2]; Phaedon cochleariae, foliar, 168 h, read-out: effect in % (beetle larvae killed)", "result": "> 80", "unit": "%"}
    ]},
    {"compound": "Cc1cc(-n2nc(C(F)(F)F)c(-c3ccc(Cl)cc3Cl)c2N)ccc1C(=O)NC(C)c1ccccn1", "note": "(centres unmarked) [I-A-Q2-412]", "values": [
      {"measurement": "log P (HCOOH)", "setting": "[1]; HCOOH", "result": "I-A-Q2-412: log P (HCOOH): 3.29"},
      {"measurement": "effect in % (beetle larvae killed)", "setting": "[2]", "result": 100, "unit": "%"}
    ]},
    {"compound": "O=C(NCC(F)(F)F)c1ccc(-n2cc(-c3cc(C(F)(F)F)cc(C(F)(F)F)c3)c(C(F)(F)F)n2)cc1C(F)(F)F", "note": "[I-A-Q2-010]", "values": [
      {"measurement": "kill of the insect larvae", "setting": "[4]", "result": 100, "unit": "%"},
      {"measurement": "kill of the insects", "setting": "[5]", "result": 100, "unit": "%"}
    ]},
    {"compound": "Cc1cc(-n2nc(C(F)(F)F)c(-c3ccccc3Br)c2N)ccc1C(=O)NC(C)c1ccccn1", "note": "(centres unmarked) [I-A-Q2-420]", "values": [
      {"measurement": "log P (HCOOH)", "setting": "[1]; HCOOH", "result": "I-A-Q2-420: log P (HCOOH): 2.81"},
      {"measurement": "effect in % (beetle larvae killed)", "setting": "[2]", "result": 100, "unit": "%"}
    ]},
    {"compound": "O=C(NCC(F)(F)F)c1ccc(-n2cc(-c3cc(Cl)cc(Cl)c3)c(C(F)(F)F)n2)cc1C(F)(F)F", "note": "[I-A-Q2-002, 4-[4-(3,5-Dichlorophenyl)-3-trifluoromethylpyrazol-1-yl]-N-(2,2,2-trifluoroethyl)-2-trifluoromethylbenzamide]", "values": [
      {"measurement": "chromatographic logP", "setting": "[1]; pH 2, read-out: log P (pH 2)", "result": 5.16},
      {"measurement": "chromatographic logP", "setting": "[1]; pH 7.5, read-out: log P (pH 7.5)", "result": 5.14},
      {"measurement": "kill of the insect larvae", "setting": "[4]", "result": 100, "unit": "%"},
      {"measurement": "kill of the insects", "setting": "[5]", "result": 100, "unit": "%"}
    ]}
  ]
}
